From ChEMBL document CHEMBL4152185, “Therapeutic potential of songorine, a diterpenoid alkaloid of the genus Aconitum” (Eur J Med Chem, 2018) come the findings set out here.

For data set [1], the system named is Rattus norvegicus. Briefly: Antiarrhythmic activity in iv dosed aconitine-induced rat arrhythmia model administered 3 to 5 mins prior to aconitine challenge by electrocardiographic method. The data set is classed as functional.
Data set [2] is described as follows: Acute toxicity in iv dosed rat. The data set is classed as organism-based. Conditions: in vivo.
Data set [3] can be described thus: Antiarrhythmic index, ratio of LD50 for iv dosed rat to ED50 for antiarrhythmic activity in iv dosed aconitine-induced rat arrhythmia model. The class given is toxicity, organism-based. Conditions: in vivo, read-out: Ratio LD50/ED50.

Turning to `C=C1[C@H]2C[C@@]3([C@@H]1O)[C@@H](CC2=O)[C@@]12[C@@H](OC(=O)c4ccccc4)CC[C@@]4(C)CN(CC)[C@@H]1[C@@H]3C[C@H]42`, in data set [1], it took a dose of 0.38 mg/kg to reach the 50% effect level (ED50). In data set [2], the LD50 (in general, the dose expected to kill half of the subjects tested) was found to be 41 mg/kg. In addition, in data set [3], the selectivity ratio came to 108.
`C=C1[C@H]2C[C@@]3([C@@H]1O)[C@@H](CC2=O)[C@@]12[C@@H](OC(C)=O)CC[C@@]4(C)CN(CC)[C@@H]1[C@@H]3C[C@H]42`: the ED50 (usually the dose that gives a 50% effect, or the effect in half of the subjects) in data set [1] worked out at 15 mg/kg. In data set [2], this compound had an LD50 of 150 mg/kg. For the same compound, the selectivity ratio in data set [3] came to 10.
The like results for `C=C1[C@H]2C[C@@]3([C@@H]1OC(C)=O)[C@@H](CC2=O)[C@@]12[C@@H](OC(C)=O)CC[C@@]4(C)CN(CC)[C@@H]1[C@@H]3C[C@H]42` were, in that order, 18 mg/kg, 131 mg/kg and 7.3.
`C=C1[C@H]2C[C@@]3([C@@H]1O)[C@@H](CC2=O)[C@]12[C@@H]4C[C@H]3[C@H]1N(CC)C[C@]4(C)CC[C@@H]2O` [SONGORINE] had a 50% effective dose (ED50) in data set [1] of 7.3 mg/kg. Also, in data set [2], the median lethal dose (LD50) was found to be 142 mg/kg. Also, in data set [3], the selectivity ratio was found to be 19.
